From ChEMBL document CHEMBL4130634, “Discovery of Reversible DNA Methyltransferase and Lysine Methyltransferase G9a Inhibitors with Antitumoral in Vivo Efficacy” (J Med Chem, 2018)

Tests used:
[1] = target: T1, DNA (cytosine-5)-methyltransferase 1 (Homo sapiens, UniProt P26358); experiment: Inhibition of human DNMT1 using polydeoxyinosine polydeoxycytosine DNA as substrate after 15 mins in presence of SAM by TR-FRET assay
[2] = AUC (0 to 24 hrs) in RARG2-/-gammac-/- Balb/c mouse at 5 mg/kg, ip administered as single dose by LC-MS/MS analysis; type: ADME, organism-based; set-up: time < 24 hr, dose 5 mg/kg, route intraperitoneal; settings: in vivo
[3] = Growth inhibition of human LAL-CUN-2 cells after 48 hrs by MTS assay; type: functional
[4] = Metabolic stability in human liver microsomes assessed as parent compound remaining at 1 uM preincubated for 10 mins followed by NADP addition after 20 mins by LC-MS/MS analysis; type: ADME, microsome; settings: microsomes, 20 min, 1 µM
[5] = Half life in human liver microsomes at 1 uM preincubated for 10 mins followed by NADP addition after 20 mins by LC-MS/MS analysis; type: ADME, microsome; settings: microsomes, 20 min, 1 µM
[6] = Metabolic stability in mouse liver microsomes assessed as parent compound remaining at 1 uM preincubated for 10 mins followed by NADP addition after 20 mins by LC-MS/MS analysis; type: ADME, microsome; settings: read-out: Stability
[7] = Half life in mouse liver microsomes at 1 uM preincubated for 10 mins followed by NADP addition after 20 mins by LC-MS/MS analysis; type: ADME, microsome
[8] = AUC (0 to 24 hrs) in RARG2-/-gammac-/- Balb/c mouse at […], iv administered as single dose by LC-MS/MS analysis; type: ADME, organism-based; set-up: dose 1.9 mg/kg, time < 24 hr, route intravenous; settings: in vivo
[9] = Half life in RARG2-/-gammac-/- Balb/c mouse at […], iv administered as single dose by LC-MS/MS analysis; type: ADME, organism-based; settings: in vivo
[10] = Clearance in RARG2-/-gammac-/- Balb/c mouse at […], iv administered as single dose by LC-MS/MS analysis; type: ADME, organism-based; settings: in vivo
[11] = Volume of distribution at steady state in RARG2-/-gammac-/- Balb/c mouse at […], iv administered as single dose by LC-MS/MS analysis; type: ADME, organism-based; settings: in vivo, read-out: Vdss
[12] = target: T2, Histone-lysine N-methyltransferase EHMT2 (Homo sapiens, UniProt Q96KQ7); experiment: Inhibition of human G9a using biotinylated-H3K9 peptide as substrate after 1 hr in presence of SAM by TR-FRET assay
T2 sequence (Q96KQ7 whole entry): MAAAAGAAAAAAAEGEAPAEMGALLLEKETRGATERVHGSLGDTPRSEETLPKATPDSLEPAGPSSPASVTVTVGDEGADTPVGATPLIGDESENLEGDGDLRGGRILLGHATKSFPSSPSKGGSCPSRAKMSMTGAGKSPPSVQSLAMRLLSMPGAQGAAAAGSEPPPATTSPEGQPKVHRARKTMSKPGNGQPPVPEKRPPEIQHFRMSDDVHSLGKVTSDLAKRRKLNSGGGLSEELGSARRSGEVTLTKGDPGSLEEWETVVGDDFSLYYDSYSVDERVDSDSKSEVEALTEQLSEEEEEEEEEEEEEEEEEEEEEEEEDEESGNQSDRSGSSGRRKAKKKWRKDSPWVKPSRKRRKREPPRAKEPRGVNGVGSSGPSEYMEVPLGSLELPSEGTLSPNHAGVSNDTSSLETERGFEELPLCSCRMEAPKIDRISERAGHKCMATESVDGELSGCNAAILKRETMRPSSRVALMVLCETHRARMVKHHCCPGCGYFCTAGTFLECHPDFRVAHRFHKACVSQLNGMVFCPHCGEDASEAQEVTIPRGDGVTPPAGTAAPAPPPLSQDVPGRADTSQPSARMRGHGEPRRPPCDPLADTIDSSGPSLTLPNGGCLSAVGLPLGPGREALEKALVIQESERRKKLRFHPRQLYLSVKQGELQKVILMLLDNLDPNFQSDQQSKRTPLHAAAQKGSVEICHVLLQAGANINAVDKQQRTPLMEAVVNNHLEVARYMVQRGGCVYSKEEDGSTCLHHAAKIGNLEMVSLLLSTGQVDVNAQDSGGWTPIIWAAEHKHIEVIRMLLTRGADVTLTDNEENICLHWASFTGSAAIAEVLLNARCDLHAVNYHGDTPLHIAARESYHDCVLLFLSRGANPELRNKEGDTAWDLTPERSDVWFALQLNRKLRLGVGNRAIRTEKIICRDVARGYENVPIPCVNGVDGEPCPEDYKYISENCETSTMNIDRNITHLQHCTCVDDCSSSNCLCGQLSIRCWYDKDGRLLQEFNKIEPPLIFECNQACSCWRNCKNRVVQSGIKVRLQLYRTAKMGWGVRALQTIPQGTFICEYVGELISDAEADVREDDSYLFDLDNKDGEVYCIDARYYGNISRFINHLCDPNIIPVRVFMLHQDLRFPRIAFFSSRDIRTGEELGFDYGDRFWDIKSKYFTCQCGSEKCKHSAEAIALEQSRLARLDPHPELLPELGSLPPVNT

[13] = Growth inhibition of human CEMO1 cells after 48 hrs by MTS assay; type: functional
[14] = test system: OCI-Ly3; experiment: Growth inhibition of human OCI-LY3 cells at 1 uM after 48 hrs by MTS assay relative to control; type: functional; settings: OCI-Ly3, 48 h, read-out: GI
[15] = target: T3, Histone-lysine N-methyltransferase EHMT1 (Homo sapiens, UniProt Q9H9B1); experiment: Inhibition of recombinant human GLP using histone H3 peptide as substrate after 120 mins in presence of [3H]SAM by radiometric assay
T3 sequence (Q9H9B1 whole entry): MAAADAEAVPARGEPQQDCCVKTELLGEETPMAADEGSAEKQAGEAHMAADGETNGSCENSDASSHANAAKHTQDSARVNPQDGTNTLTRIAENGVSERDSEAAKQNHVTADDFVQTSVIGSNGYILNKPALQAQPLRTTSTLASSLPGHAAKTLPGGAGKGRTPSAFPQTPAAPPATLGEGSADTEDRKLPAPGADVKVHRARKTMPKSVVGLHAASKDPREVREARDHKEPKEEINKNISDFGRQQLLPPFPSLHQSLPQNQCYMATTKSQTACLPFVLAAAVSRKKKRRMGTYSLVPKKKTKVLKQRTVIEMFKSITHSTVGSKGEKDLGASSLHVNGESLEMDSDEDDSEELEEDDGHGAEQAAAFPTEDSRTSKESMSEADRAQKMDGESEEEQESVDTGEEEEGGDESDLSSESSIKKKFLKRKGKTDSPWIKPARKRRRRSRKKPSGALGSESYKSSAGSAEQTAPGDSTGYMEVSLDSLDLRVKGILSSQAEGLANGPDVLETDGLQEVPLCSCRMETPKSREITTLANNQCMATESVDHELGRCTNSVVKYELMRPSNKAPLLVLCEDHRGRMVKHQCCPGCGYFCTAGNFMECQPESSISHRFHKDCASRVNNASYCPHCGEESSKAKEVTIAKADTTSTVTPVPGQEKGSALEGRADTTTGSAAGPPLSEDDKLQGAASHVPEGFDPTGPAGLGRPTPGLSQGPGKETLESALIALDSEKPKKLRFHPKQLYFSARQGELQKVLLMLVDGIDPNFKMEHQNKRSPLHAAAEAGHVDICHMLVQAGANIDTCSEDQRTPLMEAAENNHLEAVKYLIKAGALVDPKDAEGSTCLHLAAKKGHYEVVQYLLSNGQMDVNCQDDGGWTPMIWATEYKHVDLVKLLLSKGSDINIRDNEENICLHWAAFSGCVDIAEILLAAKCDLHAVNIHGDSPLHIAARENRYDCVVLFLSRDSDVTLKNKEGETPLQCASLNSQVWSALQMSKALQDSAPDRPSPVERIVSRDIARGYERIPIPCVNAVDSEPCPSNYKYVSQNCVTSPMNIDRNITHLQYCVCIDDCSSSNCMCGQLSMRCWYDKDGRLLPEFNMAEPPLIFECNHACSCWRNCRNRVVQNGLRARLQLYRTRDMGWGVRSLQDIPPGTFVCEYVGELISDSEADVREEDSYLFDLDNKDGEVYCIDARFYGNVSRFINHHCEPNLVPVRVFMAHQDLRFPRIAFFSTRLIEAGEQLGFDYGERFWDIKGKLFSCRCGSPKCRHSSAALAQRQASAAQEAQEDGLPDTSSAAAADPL

[16] = test system: OCI-Ly10; experiment: Growth inhibition of human OCI-LY10 cells at 1 uM after 48 hrs by MTS assay relative to control; type: functional; settings: OCI-Ly10, 48 h, read-out: GI
[17] = test system: MV4-11; experiment: Growth inhibition of human MV4-11 cells after 48 hrs by MTS assay; type: functional; settings: MV4-11, 48 h
[18] = test system: THLE-2; experiment: Growth inhibition of human THLE2 cells after 72 hrs by MTS assay; type: cell-based; settings: thle-2, 72 h
[19] = target: T2, Histone-lysine N-methyltransferase EHMT2; experiment: Competitive inhibition of human G9a using 40 to 2560 nM biotinylated-H3K9 peptide as substrate after 1 hr in presence of SAM by TR-FRET assay
[20] = target: T1, DNA (cytosine-5)-methyltransferase 1; experiment: Competitive inhibition of human DNMT1 using 1 to 100 ug/ml polydeoxyinosine polydeoxycytosine DNA as substrate after 15 mins in presence of SAM by TR-FRET assay
[21] = target: T2, Histone-lysine N-methyltransferase EHMT2; experiment: Non-competitive inhibition of human G9a using biotinylated-H3K9 peptide as substrate after 1 hr in presence of 2 to 640 uM SAM by TR-FRET assay
[22] = target: T1, DNA (cytosine-5)-methyltransferase 1; experiment: Non-competitive inhibition of human DNMT1 using polydeoxyinosine polydeoxycytosine DNA as substrate after 15 mins in presence of 1 to 20 uM SAM by TR-FRET assay

T1 sequence (P26358 whole entry): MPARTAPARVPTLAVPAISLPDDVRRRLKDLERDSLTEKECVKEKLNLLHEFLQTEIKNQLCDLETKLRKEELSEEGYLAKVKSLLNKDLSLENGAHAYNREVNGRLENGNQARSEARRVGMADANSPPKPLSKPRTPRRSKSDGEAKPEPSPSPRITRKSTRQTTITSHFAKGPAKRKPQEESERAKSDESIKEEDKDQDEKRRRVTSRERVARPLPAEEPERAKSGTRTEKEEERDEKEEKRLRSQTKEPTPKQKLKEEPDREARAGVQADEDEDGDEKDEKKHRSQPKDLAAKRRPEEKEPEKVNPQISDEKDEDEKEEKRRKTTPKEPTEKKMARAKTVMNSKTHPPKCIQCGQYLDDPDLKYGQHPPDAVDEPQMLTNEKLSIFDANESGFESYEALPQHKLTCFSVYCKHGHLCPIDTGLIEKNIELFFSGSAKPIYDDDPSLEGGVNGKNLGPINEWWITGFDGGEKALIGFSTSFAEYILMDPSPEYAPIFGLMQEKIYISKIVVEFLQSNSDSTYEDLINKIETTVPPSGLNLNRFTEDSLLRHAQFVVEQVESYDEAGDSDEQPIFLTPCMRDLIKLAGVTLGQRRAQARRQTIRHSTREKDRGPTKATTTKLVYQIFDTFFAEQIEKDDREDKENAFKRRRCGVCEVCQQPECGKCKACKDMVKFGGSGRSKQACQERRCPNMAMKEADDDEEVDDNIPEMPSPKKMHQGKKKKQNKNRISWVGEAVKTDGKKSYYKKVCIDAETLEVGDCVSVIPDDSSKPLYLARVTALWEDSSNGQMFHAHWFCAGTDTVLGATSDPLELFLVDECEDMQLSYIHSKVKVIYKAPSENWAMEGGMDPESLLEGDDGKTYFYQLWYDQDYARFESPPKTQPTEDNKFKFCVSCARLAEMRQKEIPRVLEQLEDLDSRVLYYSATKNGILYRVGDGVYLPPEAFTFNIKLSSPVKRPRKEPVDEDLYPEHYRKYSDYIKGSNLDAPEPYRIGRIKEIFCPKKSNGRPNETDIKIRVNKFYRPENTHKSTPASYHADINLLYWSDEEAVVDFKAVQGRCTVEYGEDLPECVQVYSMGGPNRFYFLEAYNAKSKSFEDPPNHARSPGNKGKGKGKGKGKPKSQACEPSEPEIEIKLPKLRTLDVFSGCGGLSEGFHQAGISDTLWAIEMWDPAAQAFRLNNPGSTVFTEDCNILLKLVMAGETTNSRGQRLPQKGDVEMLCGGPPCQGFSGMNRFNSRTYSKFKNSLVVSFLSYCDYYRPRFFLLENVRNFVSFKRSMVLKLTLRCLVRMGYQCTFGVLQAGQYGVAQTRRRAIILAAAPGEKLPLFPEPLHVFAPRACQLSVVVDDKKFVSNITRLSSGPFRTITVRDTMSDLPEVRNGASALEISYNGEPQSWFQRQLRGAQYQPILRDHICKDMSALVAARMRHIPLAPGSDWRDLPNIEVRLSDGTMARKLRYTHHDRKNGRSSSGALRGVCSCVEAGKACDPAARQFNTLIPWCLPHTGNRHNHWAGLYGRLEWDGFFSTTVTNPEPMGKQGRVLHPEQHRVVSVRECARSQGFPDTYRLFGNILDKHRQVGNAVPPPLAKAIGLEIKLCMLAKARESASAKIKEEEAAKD

SMILES: COc1cc2c(NC3CCN(C(C)C)CC3)nc(N3CCC(F)(F)CC3)nc2cc1OCCCN1CCCC1
- IC50 [1]: > 50 µM
- AUC(0-t) at 24 h [2]: 2.31 µM·h

SMILES: CCc1ccc(-c2cc(NC3CCN(C)CC3)c3cc(OC)c(OCCCN4CCCC4)cc3n2)o1
- GI50 [3]: 0.577 µM
- Stability [4]: 67.1%
- t1/2 [5]: 1.6 h
- remaining at 20 min, 1 µM [6]: 16.9%
- half-life at 1 µM [7]: 0.2 h
- AUC(0-t) at 24 h [8]: 0.505 µM·h
- half-life [9]: 13.2 h
- clearance [10]: 98.3 mL/min/kg
- Vd [11]: 88.5 L/kg

SMILES: COc1cc2c(NC3CCN(C(C)C)CC3)cc(C3CCCCC3)nc2cc1OCCCN1CCCC1
- IC50 [12]: 0.0007 µM
- IC50 [1]: 0.619 µM
- GI50 [13]: > 10 µM
- inhibition of growth at 1 µM [14]: 0%
- IC50 [15]: 0.18 µM
- inhibition of growth at 1 µM [16]: 0%
- GI50 [17]: > 10 µM
- LC50 [18]: 83.8 µM
- IC50 [19]: 0.0007 to 0.029 µM
- IC50 [20]: 1.4 to 10 µM
- IC50 [21]: 0.0005 to 0.002 µM
- IC50 [22]: 1.4 to 2.4 µM
